ChEMBL document CHEMBL1137303, “Progressive docking: a hybrid QSAR/docking approach for accelerating in silico high throughput screening” (J Med Chem, 2006)

biological target: T1, Sex hormone-binding globulin (Homo sapiens) (UniProt P04278); assay: Displacement of [3H]DHT from human SHBG relative to testosterone
T1 sequence (whole entry): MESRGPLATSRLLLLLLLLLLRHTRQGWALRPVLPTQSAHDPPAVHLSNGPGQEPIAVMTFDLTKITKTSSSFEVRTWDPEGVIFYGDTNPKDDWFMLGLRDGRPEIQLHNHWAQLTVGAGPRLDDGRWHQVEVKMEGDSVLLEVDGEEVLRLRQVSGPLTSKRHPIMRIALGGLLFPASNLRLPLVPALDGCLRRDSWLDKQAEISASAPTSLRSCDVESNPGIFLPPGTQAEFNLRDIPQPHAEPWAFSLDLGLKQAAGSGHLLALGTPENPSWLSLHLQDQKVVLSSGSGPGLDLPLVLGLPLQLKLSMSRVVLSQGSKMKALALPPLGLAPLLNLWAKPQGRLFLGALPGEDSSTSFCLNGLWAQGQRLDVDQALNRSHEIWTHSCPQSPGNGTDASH

SMILES	relative binding affinity (RBA)
CCC(c1ccc(O)c(O)c1)C(CC)c1ccc(O)c(F)c1 (stereo not given)	714
CCCC1c2ccc(O)cc2CC1c1ccc(O)cc1 (stereo not given)	768
CC12CCNC(=O)C=C1CCC1C2CCC2(C)C(O)CCC12 (stereo not given)	66
Cc1cc(Cc2cc(C)c(O)c(CO)c2)cc(CO)c1O	3330
C[C@]12CC[C@@H]3c4ccc(O)cc4CC[C@H]3[C@@H]1CC[C@@H]2O	3.5

biological target: T2, Sex hormone-binding globulin (Homo sapiens, UniProt P04278); assay: Displacement of [3H]DHT from human SHBG
T2 sequence (P04278 whole entry): T1 sequence (whole entry)

SMILES	IC50
CCC(c1ccc(O)c(O)c1)C(CC)c1ccc(O)c(F)c1 (stereo not given)	10.3 µM
C[C@]12CC[C@H]3[C@@H](CCC4=CC(=O)CC[C@@]43C)[C@@H]1CC[C@@H]2O [TESTOSTERONE]	0.014 µM
CCCC1c2ccc(O)cc2CC1c1ccc(O)cc1 (stereo not given)	11.1 µM
CC12CCNC(=O)C=C1CCC1C2CCC2(C)C(O)CCC12 (stereo not given)	0.95 µM
Cc1cc(Cc2cc(C)c(O)c(CO)c2)cc(CO)c1O	48.2 µM
